# Read-outs that look alike come from different tables or passages of the source.
# What was measured:
# [1] = biological target: T1, CB1 receptor (Homo sapiens, UniProt P21554); experiment: cell-based
# T1 construct: expressed in transfected cells
# In short: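 Read-out is forskolin-driven CRE-β-gal reporter activity in stably transfected human-CB1 SK-N-MC cells, normalised to vehicle (100%); agonism lowers, inverse agonism raises signal. Values are EC50 (linear regression, multiple concentrations) or % change at one concentration.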
# [2] = biological target: T2, CB2 receptor (Homo sapiens, UniProt P34972); experiment: Binding assay for CB2 agonists or inverse agonists (SK-N-MC membranes, [3H]-CP-55,940); conditions: for inhibition at 0.25 µM: read-out: CB2 receptor binding percent inhibition, test concentration 0.25 μM (footnote 8)
# T2 construct: expressed in transfected cells
# In short: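 IC50 came from percent-inhibition data over several compound concentrations, fitted by linear regression. Binding used semi-purified membranes of human CB2-transfected SK-N-MC cells, 90 min at 30 °C, pH 7.5 Tris-HCl with MgCl2, EDTA and BSA, then filtration and scintillation counting.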
# [3] = biological target: T1, CB1 receptor; experiment: Binding assay for CB1 agonists or inverse agonists (SK-N-MC membranes, [3H]-CP-55,940); conditions: for IC50: Cannabinoid CB1 Receptor Binding IC50, calculated by linear regression from percent inhibition at various test concentrations; for inhibition at 0.25 µM: read-out: CB1 receptor binding percent inhibition, test concentration 0.25 μM (footnote 8); for inhibition at 0.015 µM: read-out: CB1 receptor binding percent inhibition, test concentration 0.015 μM (footnote 7)
# In short: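 Radioligand displacement: [3H]-CP-55,940 at […], 90 min at 30° C, pH 7.5 Tris buffer with 0.5 mg/mL fatty-acid-free BSA, using semi-purified membranes of human-CB1-transfected SK-N-MC cells. Bound counts collected on GF/C filters, 10 uM WIN 55,212 for non-specific; IC50 from percent inhibition over several concentrations.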
# [4] = CB1 Receptor Functional Inverse Agonist EC50, forskolin induced β-galactosidase activity, SK-N-MC cells
# T1 sequence (P21554 whole entry): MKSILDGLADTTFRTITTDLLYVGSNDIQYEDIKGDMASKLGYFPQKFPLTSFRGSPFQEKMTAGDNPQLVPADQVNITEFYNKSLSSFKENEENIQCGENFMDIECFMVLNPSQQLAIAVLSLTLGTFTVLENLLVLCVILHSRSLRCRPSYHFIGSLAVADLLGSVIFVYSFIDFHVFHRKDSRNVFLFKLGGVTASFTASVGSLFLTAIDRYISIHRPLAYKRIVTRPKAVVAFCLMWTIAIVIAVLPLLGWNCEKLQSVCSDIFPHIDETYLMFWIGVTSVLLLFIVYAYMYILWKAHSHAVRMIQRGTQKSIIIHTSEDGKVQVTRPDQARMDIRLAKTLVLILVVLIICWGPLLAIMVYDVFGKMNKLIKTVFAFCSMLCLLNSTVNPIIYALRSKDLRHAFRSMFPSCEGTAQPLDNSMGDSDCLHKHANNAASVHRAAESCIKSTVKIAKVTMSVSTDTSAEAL
# T2 sequence (P34972 whole entry): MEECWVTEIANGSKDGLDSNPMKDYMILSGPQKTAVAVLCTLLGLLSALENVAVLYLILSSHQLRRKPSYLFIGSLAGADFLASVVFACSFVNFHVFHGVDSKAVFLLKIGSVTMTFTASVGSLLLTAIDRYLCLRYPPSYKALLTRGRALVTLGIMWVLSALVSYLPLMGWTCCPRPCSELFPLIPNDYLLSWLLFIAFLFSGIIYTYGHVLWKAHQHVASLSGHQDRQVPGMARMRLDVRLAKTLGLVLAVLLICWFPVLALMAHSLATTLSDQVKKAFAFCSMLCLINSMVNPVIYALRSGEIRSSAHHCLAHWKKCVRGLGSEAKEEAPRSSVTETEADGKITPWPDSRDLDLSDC
compound,measurement,setting,value
"Cn1nc(/C=C/S(=O)(=O)NN2CCCCC2)c2c1C(Cc1ccc(F)cc1)CCCC2 (stereo not drawn) [Cpd 128, (2E)-2-[8-(4-fluoro-benzyl)-1-methyl-1,4,5,6,7,8-hexahydro-cycloheptapyrazol-3-yl]-ethenesulfonic acid piperidin-1-ylamide]",EC50,"[1]; forskolin induced β-galactosidase activity, SK-N-MC cells, read-out: CB1 Receptor Functional Inverse Agonist EC50",2700 nM
same,CB2 receptor binding percent inhibition,[2]; test concentration not stated,0%
same,inhibition at 1 µM,"[3]; read-out: CB1 receptor binding percent inhibition, test concentration 1 μM (footnote 1)",0%
"CS(=O)(=O)n1nc(C(=O)NCc2ccccc2)c2c1C(Cc1ccc(F)cc1)CCCC2 (stereo not drawn) [Cpd 130, 8-(4-fluoro-benzyl)-1-methanesulfonyl-1,4,5,6,7,8-hexahydro-cycloheptapyrazole-3-carboxylic acid benzylamide]",EC50,"[1]; CB1 Receptor Functional Agonist EC50, SK-N-MC cells, forskolin induced β-galactosidase activity",< 30 nM
same,inhibition at 0.25 µM,[2],98%
same,IC50,[3],60 nM
same,inhibition at 0.25 µM,[3],84%
"C[C@@H](NC(=O)c1nn(-c2ccc(Cl)cc2Cl)c2c1CCCC/C2=C\c1ccc(Cl)cc1)c1ccccc1 [Cpd 131, (8E)-8-(4-chloro-benzylidene)-1-(2,4-dichloro-phenyl)-1,4,5,6,7,8-hexahydro-cycloheptapyrazole-3-carboxylic acid [(1R)-1-phenyl-ethyl]-amide]",EC50,[1]; [4],< 30 nM
same,inhibition at 0.25 µM,[2],34%
same,IC50,[3],6 nM
same,inhibition at 0.015 µM,[3],53%
same,inhibition at 0.25 µM,[3],93%
"C[C@@H](NC(=O)c1nn(-c2ccc(Cl)cc2Cl)c2c1CCCC/C2=C\c1ccc(Cl)cc1)C1CCCCC1 [Cpd 132, (8E)-8-(4-chloro-benzylidene)-1-(2,4-dichloro-phenyl)-1,4,5,6,7,8-hexahydro-cycloheptapyrazole-3-carboxylic acid [(1R)-1-cyclohexyl-ethyl]-amide]",EC50,[1]; [4],10 nM
same,inhibition at 0.25 µM,[2],42%
same,IC50,[3],5 nM
same,inhibition at 0.015 µM,[3],64%
same,inhibition at 0.25 µM,[3],94%
"O=C(NN1CCCCC1)c1nn(-c2ccc(Cl)cc2Cl)c2c1CCCC/C2=C\c1ccc(Cl)cc1 [Cpd 133, (8E)-8-(4-chloro-benzylidene)-1-(2,4-dichloro-phenyl)-1,4,5,6,7,8-hexahydro-cycloheptapyrazole-3-carboxylic acid piperidin-1-ylamide]",EC50,[1]; [4],30 nM
same,inhibition at 0.25 µM,[2],29%
same,IC50,[3],100 nM
same,inhibition at 0.25 µM,[3],66%
"O=C(NN1CCOCC1)c1nn(-c2ccc(Cl)cc2Cl)c2c1CCCC/C2=C\c1ccc(Cl)cc1 [Cpd 134, (8E)-8-(4-chloro-benzylidene)-1-(2,4-dichloro-phenyl)-1,4,5,6,7,8-hexahydro-cycloheptapyrazole-3-carboxylic acid morpholin-4-ylamide]",EC50,[1]; [4],10 nM
same,inhibition at 0.25 µM,[2],28%
same,inhibition at 0.25 µM,[3],58%
"NS(=O)(=O)c1ccc(CNC(=O)c2nn(-c3ccc(Cl)cc3Cl)c3c2CCCC/C3=C\c2ccc(Cl)cc2)cc1 [Cpd 135, (8E)-8-(4-chloro-benzylidene)-1-(2,4-dichloro-phenyl)-1,4,5,6,7,8-hexahydro-cycloheptapyrazole-3-carboxylic acid 4-sulfamoyl-benzylamide]",EC50,[1]; [4],< 30 nM
same,inhibition at 0.25 µM,[2],25%
same,IC50,[3],50 nM
same,inhibition at 0.25 µM,[3],65%
"O=C(NS(=O)(=O)c1ccccc1)c1nn(-c2ccc(Cl)cc2Cl)c2c1CCCC/C2=C\c1ccc(Cl)cc1 [Cpd 136, (8E)-N-[8-(4-chloro-benzylidene)-1-(2,4-dichloro-phenyl)-1,4,5,6,7,8-hexahydro-cycloheptapyrazole-3-carbonyl]-benzenesulfonamide]",EC50,[1]; [4],30 nM
same,inhibition at 0.25 µM,[2],18%
same,inhibition at 0.25 µM,[3],39%
"CC(NC(=O)c1nn(-c2ccc(Cl)cc2Cl)c2c1CCCC/C2=C\c1ccc(Cl)cc1)c1ccc(Cl)cc1 (stereo not drawn) [Cpd 137, (8E)-8-(4-chloro-benzylidene)-1-(2,4-dichloro-phenyl)-1,4,5,6,7,8-hexahydro-cycloheptapyrazole-3-carboxylic acid [1-(4-chloro-phenyl)-ethyl]-amide]",EC50,[1]; [4],30 nM
same,inhibition at 0.25 µM,[2],0%
same,IC50,[3],10 nM
same,inhibition at 0.015 µM,[3],57%
same,inhibition at 0.25 µM,[3],77%
